Data taken from patent US20260365637A1, “DUAL EZH2-HSP90 INHIBITORS” (TAIPEI MEDICAL UNIVERSITY, priority 2023, published 2026).

Legend:
EZH2 (Core Histone) = EZH2 (Core Histone) (Homo sapiens, UniProt Q15910); test: EZH2 inhibition assay (Reaction Biology Corporation); type: biochemical
Experimental: The EZH2 inhibitory ability of the synthesized adduct was assessed by Reaction Biology Corporation, Malvern, PA (http://www.reactionbiology.com).

HSP90a = HSP90a (Homo sapiens, UniProt P07900); test: In vitro HSP90 inhibition assay (Reaction Biology Corporation); type: biochemical
Experimental: The HSP90 inhibitory activity of the synthesized adduct was assessed by Reaction Biology Corporation, Malvern, PA (http://www.reactionbiology.com).
An in-vitro experiment was performed to assess the inhibitory effect of the synthesized adducts on the heat shock protein 90 (HSP90).

GBM cells = conditions: literature, cited from earlier work
Pt3R cells = test: Cell viability / cytotoxicity of TMZ-resistant Pt3R cells (CCK8); type: cell-based, human; conditions: for IC50: read-out: Cell growth inhibitory effect IC50
GBM cell lines = test: Preliminary screening of cell growth inhibition in GBM cell lines; type: cell-based; conditions: for cytotoxicity / cell growth inhibition against GBM cell lines: preliminary screening
From the text: As such, Hsp90 is an ATP-dependent molecular chaperone that regulates protein conformation, stability, and degradation. Several HSP90 inhibitors have been evaluated for their anti-GBM efficacy at a preliminary level. […] Reduction in the mRNA and protein expression of EGFR, PDGFRA, CDK4, and NF1 in heterogeneous GBM cells was also evidenced in treatment with AUY922.

brafv600e mutant GBM = conditions: literature; cited from earlier work

Sequence of EZH2 (Core Histone) (Q15910 whole entry): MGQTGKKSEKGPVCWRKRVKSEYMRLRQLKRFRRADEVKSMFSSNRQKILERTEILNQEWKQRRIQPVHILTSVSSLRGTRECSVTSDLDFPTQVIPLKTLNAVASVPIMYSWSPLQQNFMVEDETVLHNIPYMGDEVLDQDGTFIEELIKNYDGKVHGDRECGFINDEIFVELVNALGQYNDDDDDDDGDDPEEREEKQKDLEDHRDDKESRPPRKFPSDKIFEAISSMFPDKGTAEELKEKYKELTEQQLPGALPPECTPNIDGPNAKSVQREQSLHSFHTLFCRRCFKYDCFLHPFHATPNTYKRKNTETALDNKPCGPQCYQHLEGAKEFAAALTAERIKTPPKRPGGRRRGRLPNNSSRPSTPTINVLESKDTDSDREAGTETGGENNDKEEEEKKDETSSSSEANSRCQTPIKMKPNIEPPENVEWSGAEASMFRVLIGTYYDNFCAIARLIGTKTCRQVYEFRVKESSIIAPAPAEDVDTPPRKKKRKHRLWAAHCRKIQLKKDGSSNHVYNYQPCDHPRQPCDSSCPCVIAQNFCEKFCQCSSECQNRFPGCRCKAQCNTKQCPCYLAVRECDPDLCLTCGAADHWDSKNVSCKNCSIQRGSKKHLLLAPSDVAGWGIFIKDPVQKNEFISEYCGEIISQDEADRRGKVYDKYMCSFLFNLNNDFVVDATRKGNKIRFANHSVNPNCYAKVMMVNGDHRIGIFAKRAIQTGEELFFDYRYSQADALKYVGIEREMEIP
Sequence of EZH2 (Core Histone) (O75530 whole entry partner): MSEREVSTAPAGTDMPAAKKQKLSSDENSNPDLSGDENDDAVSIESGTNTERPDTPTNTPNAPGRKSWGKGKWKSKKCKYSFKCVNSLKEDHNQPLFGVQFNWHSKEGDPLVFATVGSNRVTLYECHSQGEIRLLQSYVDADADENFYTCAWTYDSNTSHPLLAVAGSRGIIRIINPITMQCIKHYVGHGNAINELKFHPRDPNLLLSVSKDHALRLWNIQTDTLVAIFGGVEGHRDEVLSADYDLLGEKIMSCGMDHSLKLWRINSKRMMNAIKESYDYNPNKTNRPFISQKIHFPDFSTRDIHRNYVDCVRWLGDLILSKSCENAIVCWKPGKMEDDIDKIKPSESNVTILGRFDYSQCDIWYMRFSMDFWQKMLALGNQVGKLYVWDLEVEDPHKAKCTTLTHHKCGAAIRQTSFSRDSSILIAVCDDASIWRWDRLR
Sequence of EZH2 (Core Histone) (Q15022 whole entry partner): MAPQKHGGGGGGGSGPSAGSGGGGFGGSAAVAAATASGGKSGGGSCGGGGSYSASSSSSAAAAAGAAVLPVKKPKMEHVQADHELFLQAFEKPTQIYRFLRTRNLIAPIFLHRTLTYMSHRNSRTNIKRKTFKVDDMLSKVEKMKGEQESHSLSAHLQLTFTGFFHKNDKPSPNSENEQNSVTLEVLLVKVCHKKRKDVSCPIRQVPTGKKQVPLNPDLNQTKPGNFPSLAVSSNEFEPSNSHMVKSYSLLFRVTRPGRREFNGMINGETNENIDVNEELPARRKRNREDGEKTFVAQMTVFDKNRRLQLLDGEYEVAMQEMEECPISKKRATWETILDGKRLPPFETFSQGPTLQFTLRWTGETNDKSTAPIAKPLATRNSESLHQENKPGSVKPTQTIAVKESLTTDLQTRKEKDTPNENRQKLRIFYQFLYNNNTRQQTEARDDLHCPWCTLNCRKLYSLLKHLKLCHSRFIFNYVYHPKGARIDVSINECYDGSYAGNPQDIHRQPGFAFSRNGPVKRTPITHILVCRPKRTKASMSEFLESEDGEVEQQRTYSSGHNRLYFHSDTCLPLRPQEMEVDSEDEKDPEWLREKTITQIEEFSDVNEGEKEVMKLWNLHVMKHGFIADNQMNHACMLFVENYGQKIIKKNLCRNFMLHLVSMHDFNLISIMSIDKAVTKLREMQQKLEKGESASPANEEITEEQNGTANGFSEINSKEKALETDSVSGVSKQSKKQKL
Sequence of EZH2 (Core Histone) (Q09028 whole entry partner): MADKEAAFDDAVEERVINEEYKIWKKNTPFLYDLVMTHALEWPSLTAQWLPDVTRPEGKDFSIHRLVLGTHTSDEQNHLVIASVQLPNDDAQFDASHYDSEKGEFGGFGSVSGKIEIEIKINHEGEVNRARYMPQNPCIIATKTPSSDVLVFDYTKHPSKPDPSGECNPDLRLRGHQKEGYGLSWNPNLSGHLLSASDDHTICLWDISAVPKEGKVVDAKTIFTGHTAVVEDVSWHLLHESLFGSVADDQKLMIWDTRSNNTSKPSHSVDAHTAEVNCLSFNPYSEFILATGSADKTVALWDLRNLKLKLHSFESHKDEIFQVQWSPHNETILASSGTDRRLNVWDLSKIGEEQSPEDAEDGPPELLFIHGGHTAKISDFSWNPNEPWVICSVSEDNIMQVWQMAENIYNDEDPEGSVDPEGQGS
Sequence of EZH2 (Core Histone) (Q6ZN18 whole entry partner): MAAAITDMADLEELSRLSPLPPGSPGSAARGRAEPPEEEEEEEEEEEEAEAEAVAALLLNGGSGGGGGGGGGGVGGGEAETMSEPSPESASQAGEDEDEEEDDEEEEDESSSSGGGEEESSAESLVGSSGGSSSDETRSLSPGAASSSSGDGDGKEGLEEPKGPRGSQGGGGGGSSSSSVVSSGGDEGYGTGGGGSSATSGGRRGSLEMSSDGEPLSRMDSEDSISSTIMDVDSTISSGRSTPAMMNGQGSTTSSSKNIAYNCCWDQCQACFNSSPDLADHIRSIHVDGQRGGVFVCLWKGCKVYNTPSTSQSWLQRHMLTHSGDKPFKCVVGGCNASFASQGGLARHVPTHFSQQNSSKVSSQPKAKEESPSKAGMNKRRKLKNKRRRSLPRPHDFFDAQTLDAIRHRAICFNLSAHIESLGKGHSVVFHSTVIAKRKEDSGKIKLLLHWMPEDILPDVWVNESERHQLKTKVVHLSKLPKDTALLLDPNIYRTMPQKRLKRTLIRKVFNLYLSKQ

CCN(C(=O)c1cc(C(C)C)c(O)cc1O)c1ccc(-c2cc(C(=O)NCc3c(C)cc(C)[nH]c3=O)c(C)c(N(CC)C3CCOCC3)c2)cc1 [Compound 4, N-((4,6-dimethyl-2-oxo-1,2-dihydropyridin-3-yl)methyl)-5-(ethyl(tetrahydro-2H-pyran-4-yl)amino)-4′-(N-ethyl-2,4-dihydroxy-5-isopropylbenzamido)-4-methyl-[1,1′-biphenyl]-3-carboxamide]
IC50 (EZH2 (Core Histone)): 7.35 nM | HSP90 inhibitory potential in words (HSP90a): conferred HSP90 inhibitory potential | IC50 (HSP90a): 823 nM

O=C1C=C(Nc2ccc3cnccc3c2)c2ccccc2C1=O [YZ129]
anti-GBM effect in GBM cells (GBM cells): promoted apoptosis and exerted GBM cell cycle arrest at the G2/M phase, inhibiting tumour cell proliferation and migration

CCN(c1cc(-c2ccc(N(C)C(=O)c3cc(C(C)C)c(O)cc3O)cc2)cc(C(=O)NCc2c(C)cc(C)[nH]c2=O)c1C)C1CCOCC1 [Compound 3, 4′-(2,4-dihydroxy-5-isopropyl-N-methylbenzamido)-N-((4,6-dimethyl-2-oxo-1,2-dihydropyridin-3-yl)methyl)-5-(ethyl(tetrahydro-2H-pyran-4-yl)amino)-4-methyl-[1,1′-biphenyl]-3-carboxamide]
cell growth / viability inhibitory effect in words (Pt3R cells): the only ones to exert cell viability inhibitory potential | IC50 (Pt3R cells): 27400 nM | IC50 (EZH2 (Core Histone)): 7.21 nM | HSP90 inhibitory potential in words (HSP90a): conferred HSP90 inhibitory potential | IC50 (HSP90a): 343 nM

CCCN(C(=O)c1cc(C(C)C)c(O)cc1O)c1cccc(-c2cc(C(=O)NCc3c(C)cc(C)[nH]c3=O)c(C)c(N(CC)C3CCOCC3)c2)c1 [Compound 9, 3′-(2,4-dihydroxy-5-isopropyl-N-propylbenzamido)-N-((4,6-dimethyl-2-oxo-1,2-dihydropyridin-3-yl)methyl)-5-(ethyl(tetrahydro-2H-pyran-4-yl)amino)-4-methyl-[1,1′-biphenyl]-3-carboxamide]
cell growth / viability inhibitory effect in words (Pt3R cells): unable to exert cell growth inhibitory effects | IC50 (Pt3R cells): > 79800 nM | IC50 (EZH2 (Core Histone)): 40.1 nM | HSP90 inhibitory potential in words (HSP90a): could not replicate the activity-conferring trends | IC50 (HSP90a): 9330 nM

CC(C)c1cc(-c2n[nH]c(=O)n2-c2ccc3c(ccn3C)c2)c(O)cc1O [STA9090]
cytotoxicity / cell growth inhibition against GBM cell lines (GBM cell lines): moderate cytotoxicity | cell growth inhibitory effects relative to the cocktail (GBM cell lines; single agent vs combination with Tazemetostat): several fold less than that observed with the cocktail

CCCN(C(=O)c1cc(C(C)C)c(O)cc1O)c1ccc(-c2cc(C(=O)NCc3c(C)cc(C)[nH]c3=O)c(C)c(N(CC)C3CCOCC3)c2)cc1 [Compound 5, 4′-(2,4-dihydroxy-5-isopropyl-N-propylbenzamido)-N-((4,6-dimethyl-2-oxo-1,2-dihydropyridin-3-yl)methyl)-5-(ethyl(tetrahydro-2H-pyran-4-yl)amino)-4-methyl-[1,1′-biphenyl]-3-carboxamide]
IC50 (Pt3R cells): > 79800 nM | IC50 (EZH2 (Core Histone)): 21.8 nM | HSP90 inhibitory potential in words (HSP90a): could not replicate the activity-conferring trends

CCN(C(=O)c1cc(C(C)C)c(O)cc1O)c1cccc(-c2cc(C(=O)NCc3c(C)cc(C)[nH]c3=O)c(C)c(N(CC)C3CCOCC3)c2)c1 [Compound 8, N-((4,6-dimethyl-2-oxo-1,2-dihydropyridin-3-yl)methyl)-5-(ethyl(tetrahydro-2H-pyran-4-yl)amino)-3′-(N-ethyl-2,4-dihydroxy-5-isopropylbenzamido)-4-methyl-[1,1′-biphenyl]-3-carboxamide]
cell growth / viability inhibitory effect in words (Pt3R cells): the only ones to exert cell viability inhibitory potential | IC50 (Pt3R cells): 10800 nM | IC50 (EZH2 (Core Histone)): 36.6 nM | HSP90 inhibitory potential in words (HSP90a): conferred HSP90 inhibitory potential | IC50 (HSP90a): 63.6 nM

CCNC(=O)c1noc(-c2cc(C(C)C)c(O)cc2O)c1-c1ccc(CN2CCOCC2)cc1 [AUY922]
mRNA and protein expression of EGFR, PDGFRA, CDK4, and NF1 (GBM cells; heterogeneous GBM cells): Reduction | anti-GBM effect in GBM cells (GBM cells): led to GBM cell death via apoptosis and autophagy

CCN(c1cc(-c2cccc(NC(=O)c3cc(C(C)C)c(O)cc3O)c2)cc(C(=O)NCc2c(C)cc(C)[nH]c2=O)c1C)C1CCOCC1 [Compound 2, 3′-(2,4-dihydroxy-5-isopropylbenzamido)-N-((4,6-dimethyl-2-oxo-1,2-dihydropyridin-3-yl)methyl)-5-(ethyl(tetrahydro-2H-pyran-4-yl)amino)-4-methyl-[1,1′-biphenyl]-3-carboxamide]
cell growth / viability inhibitory effect in words (Pt3R cells): unable to exert cell growth inhibitory effects | IC50 (Pt3R cells): > 79800 nM | IC50 (EZH2 (Core Histone)): 2.06 nM | potency in inhibiting EZH2 relative to compound 1 (EZH2 (Core Histone); compound 2 (3′) vs counterpart 1 (4′)): 3 fold | HSP90 inhibitory potential in words (HSP90a): devoid of HSP90 inhibitory potential

CCN(c1cc(-c2ccc(N(Cc3ccccc3)C(=O)c3cc(C(C)C)c(O)cc3O)cc2)cc(C(=O)NCc2c(C)cc(C)[nH]c2=O)c1C)C1CCOCC1 [Compound 6, 4′-(N-benzyl-2,4-dihydroxy-5-isopropylbenzamido)-N-((4,6-dimethyl-2-oxo-1,2-dihydropyridin-3-yl)methyl)-5-(ethyl(tetrahydro-2H-pyran-4-yl)amino)-4-methyl-[1,1′-biphenyl]-3-carboxamide]
IC50 (Pt3R cells): > 79800 nM | IC50 (EZH2 (Core Histone)): 11.7 nM | HSP90 inhibitory potential in words (HSP90a): could not replicate the activity-conferring trends

CCN(c1cc(-c2ccc(CN3CCOCC3)cc2)cc(C(=O)NCc2c(C)cc(C)[nH]c2=O)c1C)C1CCOCC1 [Tazemetostat]
anti-GBM efficacy (GBM cell lines): did not exhibit anti-GBM efficacy | cytotoxicity / cell growth inhibition against GBM cell lines (GBM cell lines; listed as tazemetosat): cytotoxicity-devoid trends | cytotoxicity / cell growth inhibition against GBM cell lines (GBM cell lines; listed as tazemetostat (I)): could not exert cell growth inhibitory potential against the GBM cell lines | cell growth / viability inhibitory effect in words (Pt3R cells): unable to exert cell growth inhibitory effects

CCN(c1cc(-c2ccc(NC(=O)c3cc(C(C)C)c(O)cc3O)cc2)cc(C(=O)NCc2c(C)cc(C)[nH]c2=O)c1C)C1CCOCC1 [Compound 1, 4′-(2,4-dihydroxy-5-isopropylbenzamido)-N-((4,6-dimethyl-2-oxo-1,2-dihydropyridin-3-yl)methyl)-5-(ethyl(tetrahydro-2H-pyran-4-yl)amino)-4-methyl-[1,1′-biphenyl]-3-carboxamide]
cell growth / viability inhibitory effect in words (Pt3R cells): unable to exert cell growth inhibitory effects | IC50 (Pt3R cells): > 79800 nM | IC50 (EZH2 (Core Histone)): 6.14 nM | HSP90 inhibitory potential in words (HSP90a): devoid of HSP90 inhibitory potential

CCN(c1cc(-c2cccc(N(Cc3ccccc3)C(=O)c3cc(C(C)C)c(O)cc3O)c2)cc(C(=O)NCc2c(C)cc(C)[nH]c2=O)c1C)C1CCOCC1 [Compound 10, 3′-(N-benzyl-2,4-dihydroxy-5-isopropylbenzamido)-N-((4,6-dimethyl-2-oxo-1,2-dihydropyridin-3-yl)methyl)-5-(ethyl(tetrahydro-2H-pyran-4-yl)amino)-4-methyl-[1,1′-biphenyl]-3-carboxamide]
cell growth / viability inhibitory effect in words (Pt3R cells): unable to exert cell growth inhibitory effects | IC50 (Pt3R cells): > 79800 nM | IC50 (EZH2 (Core Histone)): 641 nM | HSP90 inhibitory potential in words (HSP90a): could not replicate the activity-conferring trends | IC50 (HSP90a): 2840 nM

COc1c(C)cnc(Cn2cnc3c(Cl)nc(N)nc32)c1C [BIIB021]
resistance to molecular targeted therapy (brafv600e mutant GBM): overcome resistance to molecular targeted therapy
